How the values were obtained:
[1] = system: yellow broilers; test: Effect on the production performance of broilers (30-day feeding trial); type: in vivo; conditions: for ADFI (average daily feed intake) / ADG (average daily weight gain) / FCR (feed conversion ratio): 30 days, broilers; for effects on the production performance of broilers compared with hexahydro-colupulone (in words): in vivo
Excerpt: Single-factor was used to conduct the trial. 540 1-day-old yellow broilers with a similar average body weight of 50 g were randomly divided into 6 groups, with 6 replicates per group, equal amount of males and females and 15 yellow broilers per replicate. The chicken house and tools were sterilized before the trial. During the trial, the broilers were kept in separate regions in the same chicken house under the same feeding and management conditions. During the trial, each test group was fed with basal formula feed consisting of corn and soybean and not fed with other antioxidants or growth enhancers. The groups were known as control group (group 1) and test groups 2 to 6, wherein the control group was fed with basal formula feed only, while the test groups 2 to 6 were fed with basal formula feeds respectively mixed with hexahydro-colupulone, hexahydro-colupulone mono-acetate, or hexahydro-colupulone mono-butyrate, as shown in Table 5.
The trial lasted for 30 days. The broilers were given free hand with feed and water and were fed twice a day. To calculate the average daily feed intake (ADFI, g/d per broiler), the average daily weigh gain (ADG, g/d per broiler) and the feed conversion ratio (FCR), the 31 days old broilers (12 hours without feed but water) of each replication as one unit were weighed, and the amount of the feed consumed thereby was counted. Feed conversion ratio (FCR)=average daily feed intake/average daily weight gain

[2] = system: Duroc×Landrace×Yorkshire cross-bred bacon-type piglets; test: Effect on the production performance of hogs (14-day feeding trial); type: in vivo; conditions: 14 days, piglets
Excerpt: 480 67-day-old Duroc×Landrace×Yorkshire cross-bred bacon-type piglets with similar body weight, were randomly divided into 16 groups, with 3 replications per group, 10 piglets per replication and equal amounts of males and females. The pig pen and tools were sterilized before the trial. In the trial, the piglets were kept in separate regions in the same pig pen under the same feeding and management conditions, were given a free hand with the feed and the water, and were fed twice a day. The groups were known as control group (group 1) and test groups 2 to 16. The piglets of the control group were fed with basal formula feed only, while those of the test groups 2 to 16 were respectively fed with basal formula feed mixed with different additives, wherein the active ingredient of the additives was a hexahydro-β-acid compound or a prodrug of a hexahydro-β-acid compound provide herein, and the content thereof in the feed was 5 or 25 ppm as shown in Table 4.
The trial lasted for 14 days. During the trial, each test group was not fed with other antioxidants or growth enhancers. On the 14th day, each test group was fed with no feed but water for 12 hours, and the piglets of each replication as one unit were weighed to calculate the average daily feed intake (ADFI, g/d per piglet), the average daily weight gain (ADG, g/d per piglet), and the feed conversion ratio (FCR). Average daily feed intake=(Total weight of provided feed−Weight of residual feed)/(Days of the trial×Number of piglets in each replicate) Average daily weight gain=(final average body weight−initial average body weight)/Days of the trial Feed conversion ratio=average daily feed intake/average daily weight gain

[3] = Photostability testing under illumination of 4500 Lx of ingredient and 1% premix (HPLC); type: physicochemical; conditions: for Residual amount of active ingredient: 4500 Lx
Excerpt: (§1) Preparation of a sample of 1% premix of an ingredient: 1 g of an ingredient was respectively weighed out and evenly mixed with 99 g of corncob meal in a mixer to give a sample of 1% premix of an ingredient for testing.
Photostability testing: The samples of an ingredient and 1% premix thereof were respectively spread in petri dishes to form thin layers of <5 mm, and kept under an illumination of 4500 Lx. Three replications for a sample were sampled in parallel on day 5 and day 10 for HPLC analysis.
(§2) 25.0 mg of an ingredient was accurately weighed out and dissolved in an appropriate amount of methanol by ultrasonication. The solution was then transferred to a volumetric flask and diluted to 25 mL with methanol to give a stock solution. The samples from the stock solution were diluted with methanol respectively to a concentration of 100 ppm, 500 ppm, and 1000 ppm of work solution, and then the working solutions were filtered by 0.22 μm organic membranes. Between the concentration of a sample and the response value of HPLC peak area thereof, the linearity was adjusted and detected to give a standard curve.
(§3) 2.3: Preparation of Sample Solution 25.0 mg of an ingredient and 2.0000 g of a sample of 1% premix thereof were respectively accurately weighed out, and dissolved in 25 mL of methanol by ultrasonication for 10 minutes. The resulting solutions were filtered by organic membranes and then analyzed by HPLC. 2.4: Testing Conditions for HPLC • Column: Symmetry Cis column (Waters; 250 mm*4.6 mm, 5 μm). • Mobile phase: 0.02% phosphoric acid:methanol=5:95 (v:v). • Wavelength: 235 nm. • Temperature of the Column: 25° C. • Injection volume: 10 μL. • Flow rate: 1 mL/min. 3: Results

[4] = Thermal stability testing at 60° C. of ingredient and 1% premix (HPLC); type: physicochemical
Method: as §1
Thermal stability testing at 60° C.: The samples of an ingredient and 1% premix thereof were respectively spread in petri dishes to form thin layers of <5 mm, and kept at 60° C. Two replications for a sample were taken in parallel on day 5 and day 10 for HPLC analysis.
as §2, §3

[5] = 1% Premix of an ingredient (corncob meal), Day 5
[6] = 1% Premix of an ingredient (corncob meal), Day 10

SMILES	ADFI (average daily feed intake) ([1]; 2 ppm in feed)	ADG (average daily weight gain) ([1]; 2 ppm in feed)	FCR (feed conversion ratio) ([1]; 2 ppm in feed)	ADFI (average daily feed intake) ([1]; 20 ppm in feed)	ADG (average daily weight gain) ([1]; 20 ppm in feed)	FCR (feed conversion ratio) ([1]; 20 ppm in feed)	effects on the production performance of broilers compared with hexahydro-colupulone (in words) [1]	ADFI (average daily feed intake) ([2]; 5 ppm in feed)	ADG (average daily weight gain) ([2]; 5 ppm in feed)	ADFI (average daily feed intake) ([2]; 25 ppm in feed)	ADG (average daily weight gain) ([2]; 25 ppm in feed)	FCR (feed conversion ratio) ([2]; 25 ppm in feed)	Residual amount of active ingredient [3, 5]	Residual amount of active ingredient [3, 6]	Residual amount of active ingredient ([3]; Ingredient, Day 5)	Residual amount of active ingredient ([3]; Ingredient, Day 10)	Residual amount of active ingredient [4, 5]	Residual amount of active ingredient [4, 6]	Residual amount of active ingredient ([4]; Ingredient, Day 5)	Residual amount of active ingredient ([4]; Ingredient, Day 10)	other results
CC(=O)OC1=C(CCC(C)C)C(=O)C(CCC(C)C)(CCC(C)C)C(O)=C1C(=O)C(C)C [hexahydro-colupulone mono-acetate, Hexahydro-Colupulone Mono-Acetate]	49.13 g/d per broiler	25.67 g/d per broiler	2.02	50.06 g/d per broiler	27.36 g/d per broiler	1.95	equivalent	860 g/d per piglet	368 g/d per piglet	960 g/d per piglet	435 g/d per piglet	2.208	99.28%	98.82%	98.97%	98.31%	99.40%	98.68%	99.69%	99.44%	FCR (feed conversion ratio) ([2]; 5 ppm in feed): 2.340
CCCC(=O)OC1=C(CCC(C)C)C(=O)C(CCC(C)C)(CCC(C)C)C(O)=C1C(=O)C(C)C [hexahydro-colupulone mono-butyrate]	48.32 g/d per broiler	24.65 g/d per broiler	1.96	49.95 g/d per broiler	25.88 g/d per broiler	1.93	equivalent	991 g/d per piglet	447 g/d per piglet	973 g/d per piglet	441 g/d per piglet	2.205	99.14%	98.08%	99.99%	99.10%	98.21%	97.57%	99.76%	99.64%	FCR (feed conversion ratio) ([2]; 5 ppm in feed): 2.217
CC(C)CCC1=C(O)C(C(=O)C(C)C)=C(O)C(CCC(C)C)(CCC(C)C)C1=O [hexahydro-colupulone, reference compound]	–	–	–	49.68 g/d per broiler	25.19 g/d per broiler	1.97	–	–	–	894 g/d per piglet	403 g/d per piglet	2.218	90.11%	83.62%	92.71%	85.66%	97.02%	93.56%	99.76%	99.10%	change of active ingredient ([3]; active ingredient of 1% premix, photostability testing, day 10): more than 15%; change of active ingredient ([4]; active ingredient of 1% premix, 10-day testing period): more than 5%
